The source of these data is patent US20170190671A1, “BIS(ARYL)CATECHOL DERIVATIVES AS HERBICIDES” (E I DU PONT DE NEMOURS AND COMPANY, priority 2014, published 2017).

What all share (assay type): in vivo
For assay [1], the system named is cocklebur (common cocklebur, Xanthium strumarium). Put plainly: Test E preemergence. The following applies: scale 0 to 100. An outline of the steps:
(§1)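 Preemergence: seeds in silt loam treated with compound in non-phytotoxic solvent with surfactant. Postemergence: plants at 1- to 4-leaf stage (2–18 cm) in peat-based medium sprayed likewise. Greenhouse 14–21 days, then visual rating vs controls, 0 (no effect) to 100 (complete control).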

Assay [2] deals with johnsongrass (Sorghum halepense). As to the kind of experiment: Test E preemergence. The settings on record: scale 0 to 100. An outline of the steps: as §1
Assay [3] has as its system mallow (common mallow, Malva sylvestris). Put plainly: Test F preemergence. The settings on record: 21 days, scale 0 to 100. The source says:
(§2) Seeds of plant species selected from bermudagrass (Cynodon dactylon), Surinam grass (Brachiaria decumbens), large (Lg) crabgrass (Digitaria sanguinalis), crabgrass, naked (naked crabgrass, Digitaria nuda), foxtail, green (green foxtail, Setaria viridis), johnsongrass (Sorghum halepense), kochia (Kochia scoparia), morningglory (pitted morningglory, Ipomoea lacunosa), nutsedge, purple (purple nutsedge, Cyperus rotundus), ragweed (common ragweed, Ambrosia elatior), mustard, black (black mustard, Brassica nigra), guineagrass (Panicum maximum), dallisgrass (Paspalum dilatatum), barnyardgrass (Echinochloa crus-galli), sandbur (southern sandbur, Cenchrus echinatus), sowthistle (common sowthistle, Sonchus oleraceous), Italian ryegrass (Lolium multiflorum), signalgrass (broadleaf signalgrass, Brachiaria platyphylla), dayflower (Virginia (VA) dayflower, Commelina virginica), bluegrass (annual bluegrass, Poa annua), quackgrass (Elytrigia repens), mallow (common mallow, Malva sylvestris), buckwheat, wild (wild buckwheat, Polygonum convolvulus), leafy spurge (Euphorbia esula), chickweed (common chickweed, Stellaria media), wild poinsettia (Euphorbia heterophylla), and pigweed (Amaranthus retroflexus) were planted into a blend of loam soil and sand and treated preemergence with test a chemical formulated in a non-phytotoxic solvent mixture which included a surfactant.
(§3) Treated plants and controls were maintained in a greenhouse for 21 days, after which time all species were compared to controls and visually evaluated. Plant response ratings, summarized in Table F, are based on a scale of 0 to 100 where 0 is no effect and 100 is complete control. A dash (-) response means no test result.

Assay [4] concerns signalgrass (broadleaf signalgrass, Brachiaria platyphylla). Put plainly: Test F preemergence. The following applies: 21 days, scale 0 to 100.
Description: as §2, §3

Assay [5] deals with kochia (Kochia scoparia). As to the kind of experiment: Test F preemergence. The settings on record: 21 days, scale 0 to 100.
Description: as §2, §3

Assay [6] deals with nutsedge, purple (purple nutsedge, Cyperus rotundus). Put plainly: Test F preemergence. The settings on record: 21 days, scale 0 to 100.
Description: as §2, §3

The subject of assay [7] is morningglory (pitted morningglory, Ipomoea lacunosa). Put plainly: Test F preemergence. The following applies: 21 days, scale 0 to 100.
Description: as §2, §3

For assay [8], the system named is quackgrass (Elytrigia repens). As to the kind of experiment: Test F preemergence. The settings on record: 21 days, scale 0 to 100.
Description: as §2, §3

Assay [9] has as its system Italian ryegrass (Lolium multiflorum). Put plainly: Test F preemergence. The settings on record: 21 days, scale 0 to 100.
Description: as §2, §3

Assay [10] deals with leafy spurge (Euphorbia esula). Put plainly: Test F preemergence. The settings on record: 21 days, scale 0 to 100.
Description: as §2, §3

In assay [11] the test system is pigweed (Amaranthus retroflexus). As to the kind of experiment: Test F preemergence. The settings on record: 21 days, scale 0 to 100.
Description: as §2, §3

Assay [12] deals with rice (Oryza sativa). As to the kind of experiment: Test C flooded paddy. The settings on record: Flood, scale 0 to 100. The source says: (§4) At time of treatment, test pots were flooded to 3 cm above the soil surface, treated by application of test compounds directly to the paddy water, and then maintained at that water depth for the duration of the test. Treated plants and controls were maintained in a greenhouse for 13 to 15 days, after which time all species were compared to controls and visually evaluated. […] A dash (-) response means no test result.

For assay [13], the system named is barnyardgrass (Echinochloa crus-galli). Put plainly: Test C flooded paddy. The following applies: Flood, scale 0 to 100.
Description: as §4

Assay [14] has as its system ducksalad (Heteranthera limosa). As to the kind of experiment: Test C flooded paddy. The following applies: Flood, scale 0 to 100.
Description: as §4

For assay [15], the system named is sedge, umbrella (small-flower umbrella sedge, Cyperus difformis). As to the kind of experiment: Test C flooded paddy. The following applies: Flood, scale 0 to 100.
Description: as §4

With `Fc1cccc(Oc2ncc(Cl)cn2)c1Oc1ncc(Cl)cn1` [Compound 21, 2,2′-[[3-fluoro-1,2-phenylene]bis(oxy)]bis[5-chloropyrimidine]], the results for the “Plant response rating, Cocklebur” value in assay [1] (31 g ai/ha), in [1] (62 g ai/ha) and in [1] (125 g ai/ha) were 35, 40 and 50, respectively. Further, the “Plant response rating, Johnsongrass” value in assay [2] (16 g ai/ha) is 0; in assay [2] (31 g ai/ha), 30; in assay [2] (62 g ai/ha), 65; in assay [2] (125 g ai/ha) it was 100.

In the case of `N#Cc1cccc(Oc2ncc(Cl)cn2)c1Oc1ncc(C(F)(F)F)cn1` [Compound 38, 3-[(5-chloro-2-pyrimidinyl)oxy]-2-[[5-(trifluoromethyl)-2-pyrimidinyl]oxy]-benzonitrile], the “Plant response rating, Johnsongrass” value in assay [2] (16 g ai/ha) was found to be 0; in assay [2] (31 g ai/ha), 0; in assay [2] (62 g ai/ha), 100; in assay [2] (125 g ai/ha), 95.

For `N#Cc1cccc(Oc2ncc(Cl)cn2)c1Oc1ncc(Cl)cn1` [Compound 3, 2,3-bis[(5-chloro-2-pyrimidinyl)oxy]benzonitrile], the “Plant response rating, Mallow” value in assay [3] (62 g ai/ha), in [3] (125 g ai/ha) and in [3] (250 g ai/ha) was 100 each time. In addition, the “Plant response rating, Signalgrass” value in assay [4] (62 g ai/ha), in [4] (125 g ai/ha) and in [4] (250 g ai/ha) was 100 each time. The “Plant response rating, Kochia” value in [5] (62 g ai/ha), in assay [5] (125 g ai/ha) and in assay [5] (250 g ai/ha) was 100 in each case. The “Plant response rating, Nutsedge, Purple” value was determined as 40 in assay [6] (62 g ai/ha), 60 in assay [6] (125 g ai/ha) and 85 in [6] (250 g ai/ha). Further, the “Plant response rating, Morningglory, Pitt” value in assay [7] (62 g ai/ha), in [7] (125 g ai/ha) and in assay [7] (250 g ai/ha) was 100 throughout. Besides, the “Plant response rating, Quackgrass” value in assay [8] (62 g ai/ha) stood at 65; in assay [8] (125 g ai/ha) it was 90; in assay [8] (250 g ai/ha), 98. Further, the “Plant response rating, Ryegrass, Italian” value came out at 95 in [9] (62 g ai/ha), 100 in assay [9] (125 g ai/ha) and 100 in assay [9] (250 g ai/ha). Further, the “Plant response rating, Leafy Spurge” value worked out at 98 in assay [10] (62 g ai/ha), 100 in assay [10] (125 g ai/ha) and 98 in assay [10] (250 g ai/ha). The “Plant response rating, Pigweed” value in [11] (62 g ai/ha), in assay [11] (125 g ai/ha) and in assay [11] (250 g ai/ha) was 100 each time.

For the molecule `Fc1cccc(Oc2ncc(Cl)cn2)c1Oc1ccc(Cl)nc1` [Compound 20], the “Plant response rating, Rice” value in [12] (31 g ai/ha), in assay [12] (62 g ai/ha), in [12] (125 g ai/ha) and in [12] (250 g ai/ha) was 0 each time. Also, the “Plant response rating, Barnyardgrass” value in assay [13] (31 g ai/ha), in [13] (62 g ai/ha), in assay [13] (125 g ai/ha) and in [13] (250 g ai/ha) was 0 in each case. In addition, the “Plant response rating, Ducksalad” value in assay [14] (31 g ai/ha) is 0; in assay [14] (62 g ai/ha), 0; in assay [14] (125 g ai/ha) it was 45; in assay [14] (250 g ai/ha), 70. Moreover, the “Plant response rating, Sedge, Umbrella” value in assay [15] (31 g ai/ha) came to 0; in assay [15] (62 g ai/ha), 0; in assay [15] (125 g ai/ha) it was 65; in assay [15] (250 g ai/ha) it was 80.

For the molecule `Clc1cnc(Oc2cccc(Br)c2Oc2ncc(Cl)cn2)nc1` [Compound 19, 2,2′-[[3-bromo-1,2-phenylene]bis(oxy)]bis[5-chloropyrimidine]], the “Plant response rating, Cocklebur” value in assay [1] (16 g ai/ha), in assay [1] (62 g ai/ha) and in assay [1] (125 g ai/ha) was 0 in each case. Also, the “Plant response rating, Johnsongrass” value stood at 0 in [2] (16 g ai/ha), 0 in assay [2] (31 g ai/ha), 50 in assay [2] (62 g ai/ha) and 100 in assay [2] (125 g ai/ha).

Regarding `Fc1cccc(Oc2ncc(C(F)(F)F)cn2)c1Oc1ncc(Cl)cn1` [Compound 42, 5-chloro-2-[2-fluoro-6-[[5-(trifluoromethyl)-2-pyrimidinyl]oxy]phenoxy]pyrimidine], the “Plant response rating, Johnsongrass” value was 80 in assay [2] (16 g ai/ha), 80 in assay [2] (31 g ai/ha), 95 in assay [2] (62 g ai/ha) and 100 in [2] (125 g ai/ha).

For the molecule `Fc1cccc(Oc2ncc(Cl)cn2)c1Oc1ncc(C(F)(F)F)cn1` [Compound 43, 5-chloro-2-[5-fluoro-6-[[5-(trifluoromethyl)-2-pyrimidinyl]oxy]phenoxy]pyrimidine], the results for the “Plant response rating, Johnsongrass” value in assay [2] (31 g ai/ha) and in assay [2] (125 g ai/ha) were 90 and 100, respectively.

As for `N#Cc1cccc(Oc2ncc(Cl)cn2)c1Oc1ncc(Br)cn1` [Compound 4, 2-[(5-bromo-2-pyrimidinyl)oxy]-3-[(5-chloro-2-pyrimidinyl)oxy]benzonitrile], the “Plant response rating, Rice” value in [12] (31 g ai/ha) came out at 0; in [12] (62 g ai/ha), 0; in assay [12] (125 g ai/ha), 0; in assay [12] (250 g ai/ha) it was 30. The “Plant response rating, Barnyardgrass” value was 0 in [13] (31 g ai/ha), 0 in [13] (62 g ai/ha), 20 in assay [13] (125 g ai/ha) and 40 in [13] (250 g ai/ha). Moreover, the “Plant response rating, Ducksalad” value in [14] (31 g ai/ha) was determined as 0; in [14] (62 g ai/ha), 40; in assay [14] (125 g ai/ha) it was 100; in assay [14] (250 g ai/ha), 100. For the same molecule, the “Plant response rating, Sedge, Umbrella” value in [15] (31 g ai/ha) turned out to be 0; in assay [15] (62 g ai/ha) it was 0; in assay [15] (125 g ai/ha), 75; in assay [15] (250 g ai/ha) it was 100.
